The source of these data is US20110178064A1, “SPIRO CONDENSED […] DERIVATIVES FOR USE AS ANTIBACTERIAL” (A[…]&D, priority 2007, published 2011).

Converted amounts (≈) assume the structure as drawn.

Experiment [1] deals with Escherichia coli DNA gyrase A/B tetramer (Escherichia coli, UniProt P0AES4+P0AES6). Put plainly: DNA gyrase supercoiling activity fluorescence polarisation assay. It is filed as biochemical. In outline: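 Gyrase supercoiling reactions quenched with 40 nM 5′-BODIPY-FL oligodeoxynucleotide triplex probe in pH 3.5 NaCl/sodium acetate buffer; fluorescence anisotropy read after 60 min (485/535 nm).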
Escherichia coli DNA gyrase A/B tetramer, sequence (P0AES4 whole entry, one chain of several): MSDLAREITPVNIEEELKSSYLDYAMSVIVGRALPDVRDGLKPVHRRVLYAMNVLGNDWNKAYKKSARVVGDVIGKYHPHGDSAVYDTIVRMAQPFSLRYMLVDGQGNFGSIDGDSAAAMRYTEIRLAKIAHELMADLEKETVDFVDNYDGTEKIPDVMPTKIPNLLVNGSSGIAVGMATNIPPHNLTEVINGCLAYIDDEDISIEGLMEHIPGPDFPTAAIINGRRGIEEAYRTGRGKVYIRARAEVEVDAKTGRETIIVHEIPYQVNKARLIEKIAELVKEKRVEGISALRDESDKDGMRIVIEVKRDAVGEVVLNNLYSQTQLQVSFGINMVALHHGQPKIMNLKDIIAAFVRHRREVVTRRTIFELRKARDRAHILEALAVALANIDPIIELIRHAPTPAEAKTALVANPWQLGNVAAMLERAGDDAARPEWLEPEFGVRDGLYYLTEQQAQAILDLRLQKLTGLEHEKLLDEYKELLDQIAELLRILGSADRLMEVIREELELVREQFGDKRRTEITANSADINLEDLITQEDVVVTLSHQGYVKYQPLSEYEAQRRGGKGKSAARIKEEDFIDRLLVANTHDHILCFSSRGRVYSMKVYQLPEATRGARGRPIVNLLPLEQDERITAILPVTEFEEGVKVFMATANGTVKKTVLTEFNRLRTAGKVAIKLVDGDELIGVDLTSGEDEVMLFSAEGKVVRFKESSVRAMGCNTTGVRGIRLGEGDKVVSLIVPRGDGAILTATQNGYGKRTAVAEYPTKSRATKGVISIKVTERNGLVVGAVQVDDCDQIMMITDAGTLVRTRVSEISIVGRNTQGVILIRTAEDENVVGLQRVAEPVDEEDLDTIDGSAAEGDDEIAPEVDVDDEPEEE
On the technique in general: In fluorescence polarisation assays a small probe gives low polarisation when free and higher when bound to something large.

Another experiment concerns Eco524. Nature of the experiment: Bacterial susceptibility testing (MIC) in liquid media, 96 well format. It counts as cell-based. The note with it: Escherichia coli. An excerpt:
(§1) Compounds may be tested for antimicrobial activity by susceptibility testing in liquid media in a 96 well format. Compounds may be dissolved in dimethylsulfoxide and tested in 10 doubling dilutions in the susceptibility assays. The organisms used in the assay may be grown overnight on suitable agar media and then suspended in a liquid medium appropriate for the growth of the organism. The suspension may be a 0.5 McFarland and a further 1 in 10 dilution may be advantageously made into the same liquid medium to prepare the final organism suspension in 100 μL. Plates may be incubated under appropriate conditions at 37° C. for 24 hours prior to reading. […] Compounds may be evaluated against organisms such as Gram-positive species, including Staphylococcus aureus, Streptococcus pneumoniae, Streptococcus pyogenes, and Enterococcus faecium; and Gram-negative species including Haemophilus influenzae, Escherichia coli and Moraxella catarrhalis.

For the next experiment, the system named is Hin737. The description is as above. It is filed as cell-based. The note with it: Haemophilus influenzae.
From the text: as §1

In a further experiment the test system is Hin158. Described as above. It counts as cell-based. Particulars: Haemophilus influenzae.
From the text: as §1

The test system of a further experiment is Hin446. The description is as above. It is filed as cell-based. Particulars: Haemophilus influenzae.
From the text: as §1

Another experiment deals with Mca445. The description is as above. It is filed as cell-based. Particulars: Moraxella catarrhalis.
From the text: as §1

Another experiment relates to Sau517. Described as above. It is filed as cell-based. The note with it: Staphylococcus aureus.
From the text: as §1

Broadly, the IC50 is the concentration that inhibits the measured activity by half. A lower IC50 goes with higher potency. Turning to `C[C@@H]1CN2c3ncccc3CC3(C(=O)NC(=O)NC3=O)[C@H]2[C@H](C)O1` (relative stereo) [Example 18, (6aS,7S,9R)-rel-7,9-Dimethyl-6a,7,9,10-tetrahydro-1′H,5H-spiro[[1,4]oxazino[4,3-a][1,8]naphthyridine-6,5′-pyrimidine]-2′,4′,6′(3′H)-trione], the IC50 in experiment [1] came out at 51 µM. In addition, the MIC in the experiment on Eco524 was determined as 32 µg/mL (≈ 96.9 µM); in the experiment with Hin737, 32 µg/mL (≈ 96.9 µM); with Hin158, 8 µg/mL (≈ 24.2 µM); against Hin446, 16 µg/mL (≈ 48.4 µM).
In experiment [1], `C[C@@H]1CN2c3ccc(Br)nc3CC3(C(=O)NC(=O)NC3=O)[C@H]2[C@H](C)O1` (relative stereo) [Example 19, (2R,4S,4aS)-rel-8-Bromo-2,4-dimethyl-2,4,4a,6-tetrahydro-1H,1′H-spiro[[1,4]oxazino[4,3-a][1,5]naphthyridine-5,5′-pyrimidine]-2′,4′,6′(3′H)-trione] displayed an IC50 of 11 µM. Further, the MIC against Mca445 was 8 µg/mL (≈ 19.5 µM); against Eco524, 2 µg/mL (≈ 4.89 µM); in the experiment on Hin737 it was 16 µg/mL (≈ 39.1 µM); with Hin158, 1 µg/mL (≈ 2.44 µM); against Hin446, 4 µg/mL (≈ 9.77 µM); with Sau517, 32 µg/mL (≈ 78.2 µM).
